Values of other authors, collected in patent US11304923B2, “Use of a benzoate containing composition to treat glycine encephalopathy” (Rush University Medical Center, priority 2017, dated 2022).

Columns and labels:
[1] = system: brain-derived neurotrophic factor (BDNF); conditions: brain cells
neurotrophin-3 (NT-3) = conditions: brain cells
[2] = system: disease process of multiple sclerosis (MS); conditions: mice
DJ-1 = conditions: astrocytes and neurons

O=C([O-])c1ccccc1.[Na+] [sodium benzoate]
production of BDNF [1]: increases | production of NT-3 (neurotrophin-3 (NT-3)): increases | disease process of multiple sclerosis (MS) [2]: suppresses | DJ-1 protein level (DJ-1): up-regulates
